Where no end group is shown, it is not given here.
Legend:
Type in all cases: cell-based
[1] = tested on: Shh protein; assay: Western blot of Shh protein expression; details: keratinocytes, 10 μg/ml, 24 hr
Method: To verify whether the peptides synthesized in preparation Example 1 enhances the expression of Shh protein which is known as EDA1 target molecule and to stimulate the hair follicle, kerationcytes (3×10^5 cells) was added to each well of 96-well plates and cultured under 5% CO2 for 24 hr at 37° C. After 24-hr culture, the medium was changed with a fresh medium without serum and cells were treated with empty sample (for normalization) and peptides synthesized aseptically dissolved in distilled water with the concentration of 10 μg/ml and cultured for 24 hr under the same conditions as described above. After that, the cell culture was collected and the expression level of Shh was measured through Western blotting using the specific antibody to Shh protein.

[2] = tested on: IL-1b, IL-6, and COX-2; assay: RT-PCR of NF-κB-induced genes; details: HaCaT keratinocytes
Method: (§1) HaCaT kerationcytes were incubated with the peptides synthesized in preparation Example 1 for 20 min. The translocation of NF-κB into nucleus through the phosphorylation of IκB was examined as a representative signaling of EDA protein. The respective effect was measured by Western blot analysis using an antibody against IκB and NF-κB (SantaCruz, USA). The effect of IκB degradation through phosphorylation and uniquitination in a concentration dependent manner of the treated peptides of this invention was confirmed (FIGS. 3a and 3b). Furthermore, the activation and nucleus translocation of NF-κB was also observed after degradation of IκB (FIGS. 4a and 4b). […] The expression levels of the above mentioned proteins of IL-1b, IL-6, and COX-2 were increased with the translocations of NF-κB into nucleus which is induced by the treatments of the peptides.

[3] = tested on: NF-κB; assay: Western blot of NF-κB translocation into nucleus; details: HaCaT keratinocytes, 20 min
Method: as §1

[4] = tested on: NIH3T3 fibroblasts; assay: SRB colorimetric assay of cell growth; details: 1, 10 and 50 μg/ml, 72 hr, absorbance at 590 nm
Method: In order to evaluate three peptides prepared in Preparation Example 1 whether they have similar activities of growth factor, SRB (Sulforhodamine B; Sigma-Aldrich) colorimetric assay was carried out using HaCaT kerationcytes (Korean Cell Line Bank) and NIH3T3 fibroblasts (Korean Cell Line Bank) according to Rizzino et al. method (Rizzino, et al. Cancer Res., 48: 4266 (1988)).
HaCaT ketatinocytes and NIH3T3 fibroblasts were cultured in 250 ml-flasks containing EMEM (Eagle's minimal essential media; Gibco, USA) supplemented with 10% FBS (fetal bovine serum; Sigma). Cells cultured were treated with 1% trypsin solution to detach cells from the bottom of culture flasks and centrifuged to collect cell pellets. After cells were resuspended in EMEM not containing FBS, its aliquot (3×10^3 cells) was added to each well of 96-well plates and cultured under 5% CO2 for 24 hr at 37° C. After 24-hr culture, the medium was changed with a fresh medium without serum and cells were incubated with empty sample (for normalization) and peptides synthesized aseptically dissolved in […] distilled water with the respective concentrations of 1 μg/ml, 10 μg/ml and 50 μg/ml for 72 hr under the same conditions as described above. After removing supernatants, cells were fixed with ethanol and then washed three times using PBS (phosphate buffered saline), followed by incubation with SRB solution. Cells were sufficiently washed with 1% acetic acid and observed under a microscope to find living cell condition. In addition, absorbance at 590 nm was measured to analyze cell viability.

[5] = tested on: IκB; assay: Western blot of IκB degradation (EDA1-EDAR signal); details: HaCaT keratinocytes, 20 min
Method: as §1

| Sequence | expression of Shh protein [1] | expression of COX-2, IL-6, IL-1b [2] | translocation of NF-κB into nucleus [3] | growth of fibroblasts [4] | growth of fibroblasts ([4]; listed as SEQ ID NO:2) | cellular amount of IκB protein (degradation through phosphorylation and ubiquitination) [5] | growth of fibroblasts ([4]; listed as SEQ ID NO:1) |
| --- | --- | --- | --- | --- | --- | --- | --- |
| LLADTTHHRPWT [compound 2] | remarkably enhanced | remarkably enhanced | translocation of NF-κB into nucleus after activation | notably increases | stimulatory effect | reduced |  |
| NMSKHTTFFGA | remarkably enhanced | remarkably enhanced | translocation of NF-κB into nucleus after activation | notably increases |  | reduced | stimulatory effect |

Source: patent US9550078B2, “EDAR ligand derived peptides and use thereof” (CAREGEN CO., LTD., priority 2011, dated 2017)
